Measured values reported in ChEMBL document CHEMBL1133854, “Discovery and evaluation of piperidinyl carboxylic acid derivatives as potent alpha(4)beta(1) integrin antagonists” (Bioorg Med Chem Lett, 2001).
pIC50: −log10 of the molar value.

Assays:
[1] = Partition coefficient (logP); assay type: physicochemical; details: octanol/water
[2] = target: T1, Integrin alpha-4/beta-1 (Homo sapiens, UniProt P05556+P13612); assay: Inhibition of VCAM-1 binding to integrin alpha4-beta1 in Jurkat cells at 10 uM; assay type: cell-based
T1 sequence (P05556 whole entry): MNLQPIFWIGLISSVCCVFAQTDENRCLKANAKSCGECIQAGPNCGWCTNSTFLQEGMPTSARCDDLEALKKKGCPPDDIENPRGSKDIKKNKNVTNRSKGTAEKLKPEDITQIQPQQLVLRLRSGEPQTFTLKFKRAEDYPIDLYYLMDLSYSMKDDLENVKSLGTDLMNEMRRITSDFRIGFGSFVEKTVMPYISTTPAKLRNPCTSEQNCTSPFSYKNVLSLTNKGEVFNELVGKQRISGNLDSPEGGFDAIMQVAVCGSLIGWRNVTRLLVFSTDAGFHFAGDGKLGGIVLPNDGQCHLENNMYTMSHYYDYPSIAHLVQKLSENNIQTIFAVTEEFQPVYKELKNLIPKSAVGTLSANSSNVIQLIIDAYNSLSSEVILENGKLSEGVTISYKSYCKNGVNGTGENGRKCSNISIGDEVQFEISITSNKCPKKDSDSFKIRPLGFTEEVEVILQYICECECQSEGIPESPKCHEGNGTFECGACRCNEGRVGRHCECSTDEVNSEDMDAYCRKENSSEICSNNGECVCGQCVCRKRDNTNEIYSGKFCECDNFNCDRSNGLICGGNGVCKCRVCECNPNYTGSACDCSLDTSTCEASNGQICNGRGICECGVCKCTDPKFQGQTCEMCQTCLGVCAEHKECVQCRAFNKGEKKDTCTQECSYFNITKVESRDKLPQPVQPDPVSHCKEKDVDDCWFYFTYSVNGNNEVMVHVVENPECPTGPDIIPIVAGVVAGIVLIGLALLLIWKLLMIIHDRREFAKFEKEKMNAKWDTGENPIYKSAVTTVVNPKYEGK
T1 sequence (P13612 whole entry): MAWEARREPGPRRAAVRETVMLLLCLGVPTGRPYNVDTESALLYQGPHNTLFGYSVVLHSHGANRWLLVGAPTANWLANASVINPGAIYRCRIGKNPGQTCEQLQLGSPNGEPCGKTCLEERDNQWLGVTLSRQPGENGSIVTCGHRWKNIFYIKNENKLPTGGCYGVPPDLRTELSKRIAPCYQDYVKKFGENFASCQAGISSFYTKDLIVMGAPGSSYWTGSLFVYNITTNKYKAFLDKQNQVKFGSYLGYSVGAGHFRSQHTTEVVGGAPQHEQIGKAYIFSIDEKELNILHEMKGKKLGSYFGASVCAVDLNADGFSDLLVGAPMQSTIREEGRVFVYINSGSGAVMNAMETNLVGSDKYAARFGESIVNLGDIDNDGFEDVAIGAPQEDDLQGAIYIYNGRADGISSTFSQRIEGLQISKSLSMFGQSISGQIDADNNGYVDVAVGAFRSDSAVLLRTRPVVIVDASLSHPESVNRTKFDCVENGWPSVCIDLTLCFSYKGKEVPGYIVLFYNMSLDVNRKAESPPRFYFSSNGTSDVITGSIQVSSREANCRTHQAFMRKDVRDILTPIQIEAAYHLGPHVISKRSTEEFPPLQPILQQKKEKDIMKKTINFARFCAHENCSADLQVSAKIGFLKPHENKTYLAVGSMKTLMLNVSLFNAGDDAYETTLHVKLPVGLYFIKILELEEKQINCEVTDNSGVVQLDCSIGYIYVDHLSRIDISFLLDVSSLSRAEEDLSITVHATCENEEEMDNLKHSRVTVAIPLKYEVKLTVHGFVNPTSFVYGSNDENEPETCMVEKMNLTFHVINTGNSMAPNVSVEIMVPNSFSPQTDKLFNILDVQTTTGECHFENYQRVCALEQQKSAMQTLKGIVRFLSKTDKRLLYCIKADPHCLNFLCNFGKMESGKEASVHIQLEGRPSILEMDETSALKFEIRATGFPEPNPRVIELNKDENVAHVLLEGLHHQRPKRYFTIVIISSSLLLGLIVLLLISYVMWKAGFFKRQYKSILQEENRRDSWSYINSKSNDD

[3] = target: T1, Integrin alpha-4/beta-1; assay: Inhibition of VCAM-1 binding to integrin alpha4-beta1 of Jurkat cells; assay type: cell-based
[4] = Half life (t1/2) determined at a dose 10 mg/kg administered intraperitoneally to mice; assay type: ADME, organism-based; design: dose 10 mg/kg, route intraperitoneal; details: mouse, in vivo, ip
[5] = Maximal concentration determined at a dose 10 mg/kg administered intraperitoneally to mice; assay type: ADME, organism-based; design: dose 10 mg/kg, route intraperitoneal; details: mouse, in vivo, ip
[6] = Area under curve (AUC) determined at a dose 10 mg/kg administered intraperitoneally to mice; assay type: ADME, organism-based; design: dose 10 mg/kg, route intraperitoneal; details: mouse, in vivo, ip
[7] = target: Integrin alpha-V/beta-3 (Homo sapiens, UniProt P05106+P06756); assay: Inhibition of VCAM-1 binding to integrin alphaV-beta3 in Jurkat cells; assay type: cell-based
Integrin alpha-V/beta-3, sequence (P05106 27-788 limits assumed): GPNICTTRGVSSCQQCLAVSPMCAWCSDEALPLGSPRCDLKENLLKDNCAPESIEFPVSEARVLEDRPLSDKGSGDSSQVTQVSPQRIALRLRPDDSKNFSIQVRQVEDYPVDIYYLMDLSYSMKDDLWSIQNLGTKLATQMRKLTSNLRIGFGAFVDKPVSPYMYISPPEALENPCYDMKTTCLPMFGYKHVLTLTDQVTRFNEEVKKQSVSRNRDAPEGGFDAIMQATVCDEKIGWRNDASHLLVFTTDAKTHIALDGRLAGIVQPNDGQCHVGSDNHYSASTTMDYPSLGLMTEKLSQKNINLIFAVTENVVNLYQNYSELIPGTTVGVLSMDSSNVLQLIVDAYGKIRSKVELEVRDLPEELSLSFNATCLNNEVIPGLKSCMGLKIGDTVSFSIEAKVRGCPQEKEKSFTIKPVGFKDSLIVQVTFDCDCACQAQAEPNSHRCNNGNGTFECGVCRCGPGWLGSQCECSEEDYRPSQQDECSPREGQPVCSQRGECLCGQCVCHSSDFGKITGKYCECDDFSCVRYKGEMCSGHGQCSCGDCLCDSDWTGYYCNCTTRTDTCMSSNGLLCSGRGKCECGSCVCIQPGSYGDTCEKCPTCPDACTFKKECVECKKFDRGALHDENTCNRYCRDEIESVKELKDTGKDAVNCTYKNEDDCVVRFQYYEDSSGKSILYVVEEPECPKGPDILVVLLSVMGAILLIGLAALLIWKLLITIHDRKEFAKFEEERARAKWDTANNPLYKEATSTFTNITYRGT
Integrin alpha-V/beta-3, sequence (P06756 31-889 limits assumed): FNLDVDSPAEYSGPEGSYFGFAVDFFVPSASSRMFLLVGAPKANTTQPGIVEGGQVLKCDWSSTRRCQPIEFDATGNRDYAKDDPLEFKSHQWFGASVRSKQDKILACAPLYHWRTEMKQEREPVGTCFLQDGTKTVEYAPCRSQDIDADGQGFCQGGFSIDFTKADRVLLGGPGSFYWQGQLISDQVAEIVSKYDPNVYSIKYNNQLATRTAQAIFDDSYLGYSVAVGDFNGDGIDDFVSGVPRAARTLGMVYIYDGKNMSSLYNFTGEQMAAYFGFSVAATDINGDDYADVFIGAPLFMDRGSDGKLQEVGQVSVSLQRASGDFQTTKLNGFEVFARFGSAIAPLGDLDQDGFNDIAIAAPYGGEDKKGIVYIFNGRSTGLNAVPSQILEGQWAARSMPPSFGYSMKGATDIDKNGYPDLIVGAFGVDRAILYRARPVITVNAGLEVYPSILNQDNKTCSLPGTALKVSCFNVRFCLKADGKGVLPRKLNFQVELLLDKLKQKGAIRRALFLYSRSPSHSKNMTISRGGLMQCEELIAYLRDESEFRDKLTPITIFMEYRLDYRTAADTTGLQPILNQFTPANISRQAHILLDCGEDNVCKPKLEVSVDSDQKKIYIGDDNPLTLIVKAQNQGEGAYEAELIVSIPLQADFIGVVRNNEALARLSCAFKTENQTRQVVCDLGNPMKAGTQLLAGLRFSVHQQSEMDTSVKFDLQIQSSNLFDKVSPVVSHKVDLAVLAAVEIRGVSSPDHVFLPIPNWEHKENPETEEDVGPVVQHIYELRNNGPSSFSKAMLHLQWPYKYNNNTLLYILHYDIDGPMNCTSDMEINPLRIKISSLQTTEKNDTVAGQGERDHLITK
Integrin alpha-V/beta-3, sequence (P06756 891-1048 limits assumed): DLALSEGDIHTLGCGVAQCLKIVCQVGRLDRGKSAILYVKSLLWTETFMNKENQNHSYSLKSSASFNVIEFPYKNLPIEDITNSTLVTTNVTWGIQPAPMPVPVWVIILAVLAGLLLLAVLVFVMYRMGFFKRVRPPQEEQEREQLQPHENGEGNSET

[8] = Inhibition of VCAM-1 binding to integrin alpha9/beta1 in Jurkat cells; assay type: cell-based, Homo sapiens

Row | inhibition [2] [%] | pIC50 [3] | SMILES | further results
1 | – | – | Cc1ccccc1NC(=O)Nc1ccc(CC(=O)N[C@@H](CC(C)C)C(=O)N[C@H](C)CC(=O)O)cc1 | logP [1]: 1.72
2 | 49 | 5.00 | Cc1ccccc1NC(=O)Nc1ccc(CC(=O)N[C@@H](CC(C)C)C(=O)N2CCCCC2C(=O)O)cc1 (stereo partly drawn) | –
3 | 99 | 5.30 | Cc1ccccc1NC(=O)Nc1ccc(CC(=O)N[C@@H](CC(C)C)C(=O)N2CCCCC2C(C(=O)O)c2ccccc2)cc1 (stereo partly drawn) | –
4 | 100 | 6.52 | Cc1ccccc1NC(=O)Nc1ccc(CC(=O)N[C@@H](CC(C)C)C(=O)N2CCCCC2CC(=O)O)cc1 (stereo partly drawn) | half-life [4]: 48 min; Cmax [5]: 1440 ng/mL; AUC [6]: 955 ng·h/mL; pIC50 [7]: < 3.70; pIC50 [8]: < 4.30; logP [1]: 1.89
5 | 25 | < 5.00 | Cc1ccccc1NC(=O)Nc1ccc(CC(=O)N[C@@H](CC(C)C)C(=O)N2CCCC(C(=O)O)C2)cc1 (stereo partly drawn) | –
6 | 98 | 6.26 | Cc1ccccc1NC(=O)Nc1ccc(CC(=O)N[C@@H](CC(C)C)C(=O)N2CCC(CC(=O)O)CC2)cc1 | –
7 | 77 | 5.17 | Cc1ccccc1NC(=O)Nc1ccc(CC(=O)N[C@@H](CC(C)C)C(=O)N2CCCC(CCC(=O)O)C2)cc1 (stereo partly drawn) | –
8 | 96 | 5.33 | Cc1ccccc1NC(=O)Nc1ccc(CC(=O)N[C@@H](CC(C)C)C(=O)N2CCC(C(=O)O)CC2)cc1 | –
9 | 55 | 5.14 | Cc1ccccc1NC(=O)Nc1ccc(CC(=O)N[C@@H](CC(C)C)C(=O)N2CCCC(CC(=O)O)C2)cc1 (stereo partly drawn) | –
